The source of these data is patent US10955415B2, “CD247 as a biomarker for assessing the effect of chemotherapeutic and biological drugs” (YISSUM RESEARCH DEVELOPMENT COMPANY OF THE HEBREW …, priority 2011, dated 2021).

Structures are written as SMILES.

What all share (type): in vivo
Experiment [1] deals with cleaved caspase-3. The experiment can be described thus: Cleaved caspase-3 in splenic MDSCs (flow cytometry). Particulars: BCG-inflamed mice. From the text:
FIG. 17F. […] Means and SEM are shown. *, P<0.05; **, P<0.01. Abbreviations: Inf. (inflamed), Tot. sp. (total spleen), sp (spleen), g. (gated), Norm. (normal).
On the technique in general: A flow cytometer gives signals particle by particle.

Experiment [2] deals with MDSCs. The experiment can be described thus: NO and ROS production gated on MDSCs, CRC mouse model. Conditions: CRC-bearing mice, splenocytes. As for the experimental part:
Splenocytes isolated from normal mice, CRC mice or CRC mice treated with 5-FU alone or in a combination with CPT11 (n=5) were analyzed for nitric oxide (NO, FIG. 23A) and reactive oxygen species (ROS, FIG. 23B) production, both by flow cytometry analysis gaiting on the MDSCs (Gr1+CD11b+) population. Histograms represent production levels, as shown by mean fluorescence intensity (MFI). Data from three independent experiments (n=3) are presented. Statistical analyses using t test indicate significant differences at 95%. Means and SEM are shown. *, P<0.05; **, P<0.01. Abbreviations: Norm. (normal), g. (gated).

The subject of experiment [3] is Thy1.2+ (CD90+) T-cells. In words: T-cell proliferation of CFSE-labeled splenocytes activated with anti-CD3 and anti-CD28. Conditions: splenocytes of BCG-inflamed treated mice, anti-CD3/anti-CD28 activation. As for the experimental part:
FIG. 2C. Splenocytes from untreated, inflamed, and inflamed-treated i.v. with irinotecan were labeled with CFSE and activated with anti-CD3 and anti-CD28 antibodies or left non-activated. The proliferative response was assessed by monitoring cell divisions of gated CFSE-labeled Thy1.2+ (CD90+) cells. Data was calculated by percent of proliferating cells compared to steady state of non-activated of each group.
FIG. 18A-18E. Splenocytes and PBLs from mice untreated (naïve), inflamed, or inflamed and treated with 5-FU or CPT-11 were fixed, permeabilized, and double stained for the expression of CD247 (ζ-chain) (FIGS. 18A, 18B) and CD3ε-chain (FIGS. 18D, 18E), as shown by mean fluorescence intensity (MFI), measured in gated CD3^+ cells. FIG. 18C: Splenocytes from mice, naïve, inflamed and inflamed treated with 5-FU or CPT-11, were labeled with CFSE and activated with anti-CD3 and anti-CD28 antibodies or left non-activated. The proliferative response was assessed by monitoring cell divisions of gated CFSE-labeled Thy1.2+ (CD90+) T-cells. The percent of proliferating cells was calculated and compared to steady state levels of non-activated cells per each group. Data from three independent experiments is presented (n=3). Statistical analyses using t test indicated significant differences at 95%. Means and SEM are shown. *, P<0.05; **, P<0.01. FIG. 18F-18I. For the detection of myeloid differentiation state, splenocytes from each group were stained for (18F) DC11b^+CD11c^+ cells (representing DCs), (18G) DC11b^+F4/80^+ cells (representing monocytes), (18H) CD11c^+MHCII^+CD80^+ cells (representing fully differentiated […] as antigen presenting cells) and (18I) F4/80^+MHCII^+CD80^+ cells (representing fully differentiated […] as antigen presenting cells). Data from three independent experiments (n=4) is presented. Statistical analyses using t test indicated significant differences at 95%. Means and SEM are shown. *, P<0.05; **, P<0.01; ***, P<0.001. Abbreviations: Nor. (normal), Rel. (relative), Inf. (inflamed), ce. Pro. (cell proliferation)

Experiment [4] has as its system S100A8/9. In words: S100A8/9 mRNA and S100A9 immunoblot in purified MDSCs and total spleen. Particulars: purified MDSCs and total splenic population, BCG-inflamed mice; for S100A9 protein levels: immunoblot. From the text:
FIG. 17A. Purified MDSCs from spleens (n=4); and FIG. 17B. A total spleen population was used to analyze mRNA levels of S100A8/9 (left), and to perform immunoblotting of S100A9 (right) following the course of chronic inflammation alone, chronically inflamed mice treated with 5-FU or CPT11 (n=4), α-Tubulin levels served as a control.
Analyses used either the splenocyte population or peripheral blood as mentioned above. Cells (5×10^7/ml, or 1×10^6/ml) were lysed with Tris-NaCl buffer containing 0.5% Triton X-100 and protease inhibitors for 30 min on ice. Proteins were resolved on 12% SDS-PAGE and subjected to immunoblotting analysis using the following specific antibodies: anti-CD247, antiCD3ε antibodies, anti-S100A9, anti-S100A8, anti-iNOS, anti-ARG1, and anti-αTubulin antibodies. Specific antibodies were detected by incubation with protein A (Amersham), anti-rat or anti-goat antibodies conjugated to horseradish peroxidase (Jackson Immunoresearch), followed by enhanced chemiluminescence and exposure to Kodak X-ray films.
Total RNA was recovered from splenocytes or isolated MDSCs using Tri-Reagent (Sigma) and was subjected to reverse transcription with m-MLV-RT (Invitrogen) and random primers (IDT). Quantitative mRNA expression was analyzed by real-time PCR (ABI 7900), with SYBR green (Invitrogen). RT-PCR primers were designed to recognize an exon-exon boundary in all transcripts.
In general terms: In western blotting, separated proteins are transferred to a membrane and probed.

Experiment [5] relates to MDSCs. In words: NO production of MDSCs in colon epithel and lamina propria, CRC mouse model. Conditions: CRC-bearing mice, gated on MDSCs.

On to `O=c1[nH]cc(F)c(=O)[nH]1` [5-FU, 5-Fluorouracil], for which the “cleaved caspase-3 expression in spleen-derived MDSCs” value in experiment [1] was “significant increase”. In experiment [2], the “NO and ROS production (MDSC suppressive activity)” value was “decreased the suppressive activity”. Further, the “proliferative capacity of T cells” value in experiment [3] was “tendency of a functional recovery”. Also, in experiment [4], the “mRNA levels of S100A8/9” value is given as “significant decrease” and the S100A9 protein levels entry is “decreased amounts”. Also, the “NO production in epithel and lamina propria” value in experiment [5] was “reduced”.
In the case of `CCc1c2c(nc3ccc(OC(=O)N4CCC(N5CCCCC5)CC4)cc13)-c1cc3c(c(=O)n1C2)COC(=O)[C@]3(O)CC` [Irinotecan], the figures for the “proliferative capacity of T cells” value in experiment [3] (listed as CPT11) and in experiment [3] (listed as CPT-11) were “impaired proliferative capacity” and “significantly diminished”, respectively. The “mRNA levels of S100A8/9” value in experiment [4] is on record as “no significant changes”. Also, the S100A9 protein levels entry in experiment [4] is “remained high”.
